The target of one data set is T1, FGF-R1 (Homo sapiens, UniProt P11362, C488A/C584S/L457V).
T1 construct: starting from the endogenous methionine residue 456 to glutamate 766; made in house; host or cells: baculovirus vector expression system
As to the kind of experiment: Fibroblast Growth Factor (FGF-R) spectrophotometric assay. The note with it: for inhibition at 1 µM: 1 μM compound, read-out: FGF-P % inhibit @1 μM. Format: biochemical. Summed up:
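Baculovirus-expressed human FGF-R1 kinase domain (Met456–Glu766; L457V/C488A/C584S), 50 nM, with 2 mM ATP and 15 mM poly(E4Y1) in HEPES pH 7.5. ADP formation coupled via PK/LDH to NADH oxidation, read as A340 decrease. Ki from activity across varying compound concentrations.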

The next data set deals with T2, PDGFRβ (Homo sapiens, UniProt P09619).
T2 construct: expressed in transfected cells; host or cells: porcine aorta endothelial (PAE) cells
T2 sequence (P09619 33-1106): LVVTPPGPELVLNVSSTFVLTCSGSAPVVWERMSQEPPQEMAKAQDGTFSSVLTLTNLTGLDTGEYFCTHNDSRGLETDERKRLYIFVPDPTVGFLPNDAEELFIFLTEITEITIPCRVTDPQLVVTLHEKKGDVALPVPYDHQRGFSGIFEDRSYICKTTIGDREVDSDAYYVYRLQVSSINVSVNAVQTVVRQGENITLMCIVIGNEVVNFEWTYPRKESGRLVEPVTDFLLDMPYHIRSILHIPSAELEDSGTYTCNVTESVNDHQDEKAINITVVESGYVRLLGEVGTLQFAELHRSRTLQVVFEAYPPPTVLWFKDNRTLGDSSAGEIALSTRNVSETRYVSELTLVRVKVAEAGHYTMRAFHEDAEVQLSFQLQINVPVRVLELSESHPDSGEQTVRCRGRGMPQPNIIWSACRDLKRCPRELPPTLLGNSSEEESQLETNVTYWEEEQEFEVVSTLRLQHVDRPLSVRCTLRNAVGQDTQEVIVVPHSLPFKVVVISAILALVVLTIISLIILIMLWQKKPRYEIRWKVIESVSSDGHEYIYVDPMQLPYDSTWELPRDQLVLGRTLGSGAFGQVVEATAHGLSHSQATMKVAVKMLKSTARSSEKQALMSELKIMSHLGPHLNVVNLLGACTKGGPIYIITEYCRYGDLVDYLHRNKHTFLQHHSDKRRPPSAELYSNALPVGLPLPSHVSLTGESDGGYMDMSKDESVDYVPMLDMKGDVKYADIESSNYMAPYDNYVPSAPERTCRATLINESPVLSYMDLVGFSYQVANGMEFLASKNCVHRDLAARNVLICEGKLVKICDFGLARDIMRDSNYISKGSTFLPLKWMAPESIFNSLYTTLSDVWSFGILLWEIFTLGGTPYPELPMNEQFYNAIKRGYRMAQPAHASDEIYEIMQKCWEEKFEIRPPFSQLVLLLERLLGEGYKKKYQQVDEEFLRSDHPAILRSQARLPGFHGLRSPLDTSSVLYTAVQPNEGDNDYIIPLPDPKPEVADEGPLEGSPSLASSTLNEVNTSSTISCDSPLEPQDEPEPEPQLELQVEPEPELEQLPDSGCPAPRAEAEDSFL
Kind of data set: PAE-PDGFRβ Phosphorylation in PAE-PDGFRB Cells Assay. Format: cell-based. The note with it: PAE cells overexpressing human PDGFRβ; read-out: PAE PDGFR autophos IC50. The method, boiled down: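 PAE cells overexpressing human PDGFRβ, serum-starved 16 h (0.1% FBS), compound 1 h at 37° C (0.5% DMSO), then 1 μg/mL PDGF-BB with 2 mM Na3VO4 for 8 min. Receptor captured by anti-PDGFRβ, phosphotyrosine detected by HRP-PY20/TMB at 450 nm; IC50 by four-parameter fit.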

Data set [1] can be described thus: Human Liver Microsome (HLM) Assay. Format: in vitro ADME. On the procedure: Compound metabolism in human liver microsomes was measured by LC-MS analytical assay procedures as follows. First, human liver microsomes (HLM) were thawed and diluted to 5 mg/mL with cold 100 mM potassium phosphate (KPO4) buffer. Appropriate amounts of KPO4 buffer, NADPH-regenerating solution (containing B-NADP, glucose-6-phosphate, glucose-6-phosphate dehydrogenase, and MgCl2), and HLM were preincubated in 13×100 mm glass tubes at 37 C. for 10 min. (3 tubes per test compound—triplicate). Test compound (5 µM final) was added to each tube to initiate reaction and was mixed by gentle vortexing, followed by incubation at 37° C. […] Samples were centrifuged at 4000 rpm for 20 min. to precipitate proteins and salt (Beckman Allegra 6KR, S/N ALK98DO6, #634). Supernatant was transferred to new 12×75 mm glass tubes and evaporated by Speed-Vac centrifugal vacuum evaporator. Samples were reconstituted in 200 μL 0.1% formic acid/acetonitrile (90/10) and vortexed vigorously to dissolve. The samples were then transferred to separate polypropylene microcentrifuge tubes and centrifuged at 14000×g for 10 min. (Fisher Micro 14, S/N M0017580). […]
The combined compound samples were injected into the LC-MS system, composed of a Hewlett-Packard HP 1100 diode array HPLC and a Micromass Quattro II triple quadruple mass spectrometer operating in positive electrospray SIR mode (programmed to scan specifically for the molecular ion of each test compound. Each test compound peak was integrated at each timepoint. […]

Structures are written as SMILES.

Results on 8 molecules are retold here after patent US7053107B2, “Indazole compounds and pharmaceutical compositions for inhibiting protein kinases, and methods for their use” (Agouron Pharmaceuticals, Inc., priority 2002, dated 2006).

Usually IC50 stands for the concentration needed to halve the response being measured. In general, Ki refers to a measure of affinity in units of concentration, obtained from inhibition or displacement. Read a high Ki as a looser hold on the target.

T1 sequence (P11362 456-766 L457V/C488A/C584S): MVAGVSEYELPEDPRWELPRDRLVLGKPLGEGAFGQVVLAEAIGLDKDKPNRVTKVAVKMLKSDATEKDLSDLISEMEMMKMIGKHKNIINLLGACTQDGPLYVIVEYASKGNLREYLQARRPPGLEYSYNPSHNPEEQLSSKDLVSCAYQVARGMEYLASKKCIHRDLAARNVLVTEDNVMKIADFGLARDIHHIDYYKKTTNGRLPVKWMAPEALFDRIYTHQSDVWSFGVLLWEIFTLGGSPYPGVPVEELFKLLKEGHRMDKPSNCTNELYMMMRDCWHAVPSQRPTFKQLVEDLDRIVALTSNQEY

Turning to `O=C(NC1CC1)c1ccccc1Nc1ccc2c(/C=C/c3ccccn3)n[nH]c2c1` [Example 3(d), N-Cyclopropyl-2-[3-((E)-2-pyridin-2-yl-vinyl)-1H-indazol-6-ylamino]-benzamide], at FGF-R1, the inhibition at 1 µM was determined as 80%. Besides, the half-maximal inhibitory concentration (IC50) on PDGFRβ was found to be 3.5 nM. In data set [1] (@2 h), the “% remaining (HLM)” value is listed as 68@2 h %.

Take `C=C(C)CNC(=O)c1ccccc1Nc1ccc2c(/C=C/c3ccccn3)n[nH]c2c1` [Example 3(k), N-(2-Methyl-allyl)-2-[3-((E)-2-pyridin-2-yl-vinyl)-1H-indazol-6-ylamino]-benzamide]: at FGF-R1, the inhibition at 1 µM is 36%. Besides, the half-inhibitory concentration (IC50) on PDGFRβ came out at 5 nM. Further, in data set [1] (@0.5 h), the “% remaining (HLM)” value is given as 75@0.5 h %.

For the molecule `O=C(NCC#CCO)c1ccccc1Nc1ccc2c(/C=C/c3ccccn3)n[nH]c2c1` [Example 64, N-(4-Hydroxy-but-2-ynyl)-2-[3-(2-pyridin-2-yl-vinyl)-1H-indazol-6-ylamino]-benzamide], the inhibition at 1 µM at FGF-R1 is 39%. Further, at PDGFRβ, the IC50 turned out to be 5.5 nM. Further, in data set [1] (@0.5 h), the “% remaining (HLM)” value is recorded as 66@0.5 h %.

On to `COc1ccccc1CNC(=O)c1ccccc1Nc1ccc2c(/C=C/c3ccccn3)n[nH]c2c1` [Example 3(h), N-(2-Methoxy-benzyl)-2-[3-((E)-2-pyridin-2-yl-vinyl)-1H-indazol-6-ylamino]-benzamide], for which the inhibition at 1 µM at FGF-R1 worked out at 85%. Besides, on PDGFRβ, the IC50 amounted to 0.63 nM. Moreover, the “% remaining (HLM)” value in data set [1] (@0.5 h) is reported as 75@0.5 h %.

Consider `C#CCNC(=O)c1ccccc1Nc1ccc2c(/C=C/c3cc(C)ccn3)n[nH]c2c1` [Example 32, 2-{3-[(E)-2-(4-Methyl-pyridin-2-yl)-vinyl]-1H-indazol-6-ylamino}-N-prop-2-ynyl-benzamide], for which the inhibition at 1 µM at FGF-R1 is 70%. Further, the IC50 on PDGFRβ is 0.5 nM. Also, in data set [1] (@0.5 h), the “% remaining (HLM)” value was 97@0.5 h %.

For the molecule `Cc1ccnc(/C=C/c2n[nH]c3cc(Nc4ccccc4C(=O)NC4CC4)ccc23)c1` [Example 2(h), N-Cyclopropyl-2-{3-[(E)-2-(4-methyl-pyridin-2-yl)-vinyl]-1H-indazol-6-ylamino}-benzamide], on FGF-R1, the inhibition at 1 µM amounted to 75%. Also, at PDGFRβ, the IC50 was 2.8 nM. The “% remaining (HLM)” value in data set [1] (@0.5 h) is recorded as 74@0.5 h %.

As to `O=C(NC1CCC1)c1ccccc1Nc1ccc2c(/C=C/c3ccccn3)n[nH]c2c1` [Example 3(j), N-Cyclobutyl-2-[3-((E)-2-pyridin-2-yl-vinyl)-1H-indazol-6-ylamino]-benzamide], the inhibition at 1 µM at FGF-R1 is 43%. At PDGFRβ, the IC50 stood at 4.7 nM. For the same molecule, the “% remaining (HLM)” value in data set [1] (@0.5 h) was 65@0.5 h %.

As for `Cc1cc(C)nc(/C=C/c2n[nH]c3cc(Nc4ccccc4C(=O)NCC#CCO)ccc23)c1` [Example 10, 2-{3-[(E)-2-(4,6-Dimethyl-pyridin-2-yl)-vinyl]-1H-indazol-6-ylamino}-N-(4-hydroxy-but-2-ynyl)-benzamide], the inhibition at 1 µM at FGF-R1 worked out at 38%. For the same molecule, the inhibitory constant (Ki) on FGF-R1 (second value in the FGF-P cell, Ki) was determined as 197 nM. The IC50 on PDGFRβ was 21 nM. Besides, in data set [1] (@0.5 h), the “% remaining (HLM)” value is reported as 80@0.5 h %.
